From article PMC10348910, “Epigenetic reprogramming of cell cycle genes by ACK1 promotes breast cancer resistance to CDK4/6 inhibitor” (Oncogene, 2023)

Tests used:
CDK1, CDK2 and WEE1 mRNA = test: qRT-PCR of CDK1, CDK2 and WEE1; type: cell-based; settings: MCF-7 and MDA-MB-453; overnight
Procedure: Real-time quantitative PCR analyses were performed using the ABI PRISM 7900HT Sequence Detection System (Applied Biosystems) as described earlier. Briefly, the PCR was carried out with SYBR Green PCR Master Mix (Applied Biosystems) using 2 µl of cDNA (or ChIP DNA) and the primers in a 20 µl final reaction mixture. Dissociation curves were generated for each plate to verify the integrity of the primers. Data were analyzed using SDS software version 2.2.2 and exported into an Excel spreadsheet. The 18S or Actin data were used for normalizing the gene values. The sequences for the primers are in Supplementary Table 12.
Supplementary Figure S9: Effect of ACK1 inhibition on CDKs and WEE1.
RNA from breast cancer cells treated with vehicle or varying concentrations of (R)-9b overnight were subjected to qRT-PCR using CDK1, CDK2 and WEE1 primers. 18S rRNA was used as housekeeping control. Data are represented as the mean ± SEM from 2 biologically independent experiments. *p<0.05, **p<0.01, ***p<0.001, unpaired two-tailed Student’s t-test.

MDA-MB-468 xenografts = test: MDA-MB-468 xenograft in mammary fat pad; type: in vivo, female SCID mice
Procedure: To validate these findings in breast tumors, MDA-MB-468 cells were injected in female SCID mice. Once palpable tumors were formed (5 weeks), mice were treated with vehicle (6% captisol), palbociclib (80 mg/Kg of body weight), (R)-9b (36 mg/Kg of body weight) by oral route, or (R)-9b (24 mg/Kg of body weight) by subcutaneous injection, five times a week.
Fig. 7 ACK1 inhibitor overcomes palbociclib-resistant breast cancer growth and metastasis. A 3 × 10^6 MDA-MB-468 cells were injected in the 4th inguinal mammary fat pad of female SCID mice. Once the tumors were palpable, the mice were treated with either vehicle (Captisol; n = 7), Palbociclib at 80 mg/kg (n = 6), or (R)-9b at 36 mg/Kg (n = 6) orally. In addition, mice were injected with (R)-9b at 24 mg/Kg (n = 7) subcutaneously. Mice were treated five times a week, for 22 days. B, C The tumors were harvested and photographed, and the weights were recorded. D Vehicle or (R)-9b treated breast cancer cells were subjected to ChIP using pY88-H4 antibody, followed by qPCR for CXCR4 gene. E CXCR4 mRNA transcript levels in vehicle or (R)-9b treated MDA-MB-231 cells. 18S rRNA was used as housekeeping gene. F MDA-MB-231 cells were transfected with ACK1 or scrambled siRNA, followed by qRT-PCR to determine CXCR4 mRNA transcript levels. G Representative lung metastatic deposits of MDA-MB-231 cells injected via the tail veins in female SCID mice, treated with either vehicle or 24 mg/Kg (R)-9b orally. H Graphical quantitation of lung metastatic deposit. I and J 5 × 10^5 luciferase expressing 4T1 cells were injected into 4th inguinal mammary fat pad of female BALB/c mice. Once the tumors were palpable, mice were treated with either vehicle or (R)-9b at 24 mg/Kg (n = 3, each) subcutaneously for 2 weeks, five times a week. The metastases were assessed using IVIS. Data are represented as the mean ± SEM. *p < 0.05; **p < 0.01; ***p < 0.001. For (A, C–F, I), p values were calculated using unpaired two-tailed Student’s t test.
All animal experiments were performed using the standards for humane care in accordance with the NIH Guide for the Care and Use of Laboratory Animals. Mice were obtained from Charles River Laboratories and experiments were performed according to IACUC protocols (IACUC # 20180259) approved in writing by Washington University in St. Louis Department of Comparative Medicine (DCM). 1.5 × 10^6 Cal-148 or MCF7, or 3 × 10^6 MDA-MB-468 cells were suspended in 200 µl of PBS with 50% matrigel (BD Biosciences) and were implanted subcutaneously into the mammary fat pad (between fourth and fifth inguinal) of female SCID C.B17 mice (n = 8 per group). Once the tumors were palpable (about 4–5 weeks), mice were randomly chosen for subcutaneous injection (Cal-148 and MCF7; 24 mg/Kg body weight) or given oral gavage with (R)-9b (MCF7; 36 mg/Kg body weight) resuspended in 6% Captisol (or 6% Captisol in PBS as vehicle), five times a week, for 4–5 weeks. Tumor volumes were measured twice a week using calipers. At the end of the study, all mice were humanely euthanized, tumors extracted and weighed.

pY284-ACK1 = test: immunoprecipitation and immunoblotting for pY284-ACK1; type: cell-based; settings: MDA-MB-231, HCC-1395, Cal148, T47D, MCF7, SKBR3, MDA-MB-453; overnight
Procedure: Fig. 2 ACK1 regulates breast cancer transcriptome, affecting genes implicated in cell cycle progression. A Chemical structure of (R)-9b. B Breast cancer cell lines were treated with either vehicle or (R)-9b overnight and cell lysates were subjected to immunoprecipitation using ACK1 antibody, followed by immunoblotting with pY284-ACK1 antibody. Lysates were also subjected to immunoblotting with total ACK1 and Actin antibodies, shown in the lower panels. […] C Breast cancer cell lines were treated with varying concentrations of (R)-9b for 96 h and the cell proliferation was measured using Trypan Blue exclusion method. D–H RNA from breast cancer cells treated with vehicle or varying concentrations of (R)-9b overnight, and were subjected to qRT-PCR using CCNB1, CCNB2 and CDC20 primers. Actin or 18S rRNA was used as housekeeping control. For (B), representative images of three independent experiments are shown. For (C), a four parameter, variable slope, non-linear regression curve was computed, representing three independent experiments. For (D–H), data are represented as the mean ± SEM. *p < 0.05, **p < 0.01, ***p < 0.001, unpaired two-tailed Student’s t test.
Vehicle or (R)-9b (5 µM, overnight in serum free media) treated cells were lysed by sonication in receptor lysis buffer (RLB) and lysates were fractionated by SDS-PAGE, and transferred onto a PVDF membrane (Immobilon). […]

For `CN1CCN(c2ccc(Nc3ncc(Cl)c(NC[C@H]4CCCO4)n3)cc2)CC1` [(R)-9b], which “CDK1 and 2, and WEE1 expression” value (CDK1, CDK2 and WEE1 mRNA) is on record?
The value was “affected”.

What about the tumor weights (MDA-MB-468 xenografts; (R)-9b 36 mg/Kg oral or 24 mg/Kg subcutaneous, end of experiment) of the same compound?
Its tumor weights is “significant reduction in tumor weights”.

What about the xenograft tumor growth (MDA-MB-468 xenografts; palbociclib 80 mg/Kg oral, (R)-9b 36 mg/Kg oral or 24 mg/Kg subcutaneous, five times a week, 3 weeks) of the same compound?
The xenograft tumor growth was “compromised tumors growth”.

What about the “weights of the mice” value (MDA-MB-468 xenografts; palbociclib 80 mg/Kg, (R)-9b 36 mg/Kg oral or 24 mg/Kg subcutaneous) of the same compound?
The value was “did not exhibit significant loss of weight”.

And the “histology (H&E) of heart, spleen, kidneys and livers” value (MDA-MB-468 xenografts; palbociclib 80 mg/Kg, (R)-9b oral and subcutaneous)?
The value was “did not reveal histological abnormalities”.

What about the “pY284-ACK1 levels (ACK1 activation)” value (pY284-ACK1) of the same compound?
The value was “reduced pY284-ACK1 levels”.
